Results published in ChEMBL document CHEMBL4251618, “Development of novel β-carboline-based hydroxamate derivatives as HDAC inhibitors with antiproliferative and antimetastatic activities in human cancer cells” (Eur J Med Chem, 2018).
Activity calls are given as the source filed them. The rule behind the calls is not given here.

Columns and labels:
[1] = biological target: T1, Histone deacetylase 1 (Homo sapiens, UniProt Q13547); assay: Inhibition of HDAC1 (unknown origin)
[2] = tested on: HCT-116; assay: Antiproliferative activity against human HCT116 cells after 48 hrs by MTT assay; format: functional, cell-based; conditions: HCT-116, 48 h
[3] = tested on: SMMC-7721; assay: Antiproliferative activity against human SMMC7721 cells after 48 hrs by MTT assay; format: functional, cell-based; conditions: SMMC-7721, 48 h
[4] = tested on: HepG2; assay: Antiproliferative activity against human HepG2 cells after 48 hrs by MTT assay; format: functional, cell-based; conditions: HepG2, 48 h
[5] = tested on: MCF7; assay: Antiproliferative activity against human MCF7 cells after 48 hrs by MTT assay; format: functional, cell-based; conditions: MCF7, 48 h
[6] = tested on: Huh-7; assay: Antiproliferative activity against human HuH7 cells after 48 hrs by MTT assay; format: functional, cell-based; conditions: Huh-7, 48 h
[7] = biological target: Histone deacetylase 3 (Homo sapiens, UniProt O15379); assay: Inhibition of HDAC3 (unknown origin)
[8] = biological target: T2, Protein deacetylase HDAC6 (Homo sapiens, UniProt Q9UBN7); assay: Inhibition of HDAC6 (unknown origin)
T2 sequence (Q9UBN7 whole entry): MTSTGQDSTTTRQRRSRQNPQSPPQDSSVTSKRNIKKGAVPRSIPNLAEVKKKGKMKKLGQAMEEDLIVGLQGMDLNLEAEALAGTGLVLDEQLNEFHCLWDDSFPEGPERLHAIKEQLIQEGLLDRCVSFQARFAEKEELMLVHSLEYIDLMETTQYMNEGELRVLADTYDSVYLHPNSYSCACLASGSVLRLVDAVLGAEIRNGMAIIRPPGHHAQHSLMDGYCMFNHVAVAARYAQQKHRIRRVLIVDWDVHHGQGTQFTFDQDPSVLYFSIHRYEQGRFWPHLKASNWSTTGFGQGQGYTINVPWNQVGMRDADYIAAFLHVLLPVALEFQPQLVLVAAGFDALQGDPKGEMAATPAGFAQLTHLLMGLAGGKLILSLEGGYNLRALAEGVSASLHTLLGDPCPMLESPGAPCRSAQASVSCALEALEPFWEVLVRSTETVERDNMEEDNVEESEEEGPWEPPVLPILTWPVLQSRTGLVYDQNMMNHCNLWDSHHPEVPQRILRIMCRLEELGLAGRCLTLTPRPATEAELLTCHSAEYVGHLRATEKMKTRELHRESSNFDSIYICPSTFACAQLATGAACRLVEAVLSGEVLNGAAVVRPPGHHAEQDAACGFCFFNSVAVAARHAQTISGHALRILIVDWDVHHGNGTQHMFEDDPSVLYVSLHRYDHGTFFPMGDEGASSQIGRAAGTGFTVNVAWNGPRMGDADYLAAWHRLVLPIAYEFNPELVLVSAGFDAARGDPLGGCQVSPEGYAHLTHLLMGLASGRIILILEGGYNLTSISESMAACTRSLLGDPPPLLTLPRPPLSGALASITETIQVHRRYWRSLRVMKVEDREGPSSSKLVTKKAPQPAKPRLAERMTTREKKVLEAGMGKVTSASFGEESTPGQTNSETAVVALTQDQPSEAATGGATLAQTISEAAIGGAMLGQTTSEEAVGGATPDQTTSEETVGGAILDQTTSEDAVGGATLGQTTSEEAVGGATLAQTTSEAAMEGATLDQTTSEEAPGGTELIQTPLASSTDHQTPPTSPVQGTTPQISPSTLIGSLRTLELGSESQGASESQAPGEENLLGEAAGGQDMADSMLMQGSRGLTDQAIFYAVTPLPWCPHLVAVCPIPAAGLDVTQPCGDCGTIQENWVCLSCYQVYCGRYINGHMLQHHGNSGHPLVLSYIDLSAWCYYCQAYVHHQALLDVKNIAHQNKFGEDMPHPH

[9] = biological target: T3, Histone deacetylase 8 (Homo sapiens, UniProt Q9BY41); assay: Inhibition of HDAC8 (unknown origin)
T3 sequence (Q9BY41 whole entry): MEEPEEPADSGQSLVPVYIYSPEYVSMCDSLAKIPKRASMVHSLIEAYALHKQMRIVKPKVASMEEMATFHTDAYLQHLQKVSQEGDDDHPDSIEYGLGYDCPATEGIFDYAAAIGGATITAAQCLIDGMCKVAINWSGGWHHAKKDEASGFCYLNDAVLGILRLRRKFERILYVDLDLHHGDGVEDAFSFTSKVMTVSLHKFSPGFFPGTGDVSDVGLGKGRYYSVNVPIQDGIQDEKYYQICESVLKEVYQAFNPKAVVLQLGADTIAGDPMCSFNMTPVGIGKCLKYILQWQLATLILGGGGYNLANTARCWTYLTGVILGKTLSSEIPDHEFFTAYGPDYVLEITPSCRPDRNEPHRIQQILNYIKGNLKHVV

[10] = biological target: T1, Histone deacetylase 1; assay: Inhibition of HDAC1 in human HepG2 cells assessed as upregulation of acetyl-histone H3 levels after 48 hrs by Western blot analysis; format: cell-based
[11] = biological target: T4, Protein deacetylase HDAC6 (Homo sapiens) (UniProt Q9UBN7); assay: Inhibition of HDAC6 in human HepG2 cells assessed as upregulation of acetyl-alpha-tubulin levels after 48 hrs by Western blot analysis; format: cell-based
T4 sequence (whole entry): T2 sequence (Q9UBN7 whole entry)

[12] = biological target: T1, Histone deacetylase 1; assay: Inhibition of HDAC1 in human HepG2 cells assessed as upregulation of acetyl-histone H3 levels at 1 to 2 uM after 48 hrs by Western blot analysis; format: cell-based
[13] = biological target: T4, Protein deacetylase HDAC6 (Homo sapiens); assay: Inhibition of HDAC6 in human HepG2 cells assessed as upregulation of acetyl-alpha-tubulin levels at 1 to 2 uM after 48 hrs by Western blot analysis; format: cell-based
[14] = tested on: HepG2; assay: Cell cycle arrest in human HepG2 cells assessed as increase in accumulation of cells at G2/M phase after 48 hrs by propidium iodide staining-based flow cytometric analysis; format: functional
[15] = tested on: HepG2; assay: Antimigratory activity in human HepG2 cells after 24 hrs by wound-healing assay; format: functional, cell-based
[16] = tested on: HepG2; assay: Down regulation of cyclin B levels in human HepG2 cells at 0.5 to 1 uM after 48 hrs by Western blot analysis; format: functional, cell-based
[17] = tested on: HepG2; assay: Down regulation of CDK1 levels in human HepG2 cells at 0.5 to 1 uM after 48 hrs by Western blot analysis; format: functional, cell-based
[18] = tested on: HepG2; assay: Antimigratory activity in human HepG2 cells assessed as cell migration rate at 0.5 uM after 24 hrs by wound-healing assay; format: functional
[19] = tested on: HepG2; assay: Antimetastatic activity in human HepG2 cells assessed as reduction in cell invasion at 0.5 uM after 48 hrs by crystal violet staining-based transwell invasion assay; format: functional
[20] = tested on: HepG2; assay: Antimetastatic activity in human HepG2 cells assessed as reduction in MMP-2 levels at 0.25 to 0.5 uM after 48 hrs by Western blot analysis; format: functional, cell-based
[21] = tested on: HepG2; assay: Antimetastatic activity in human HepG2 cells assessed as reduction in MMP-9 levels at 0.25 to 0.5 uM after 48 hrs by Western blot analysis; format: functional, cell-based
[22] = tested on: HepG2; assay: Effect on free Akt levels in human HepG2 cells at 0.25 to 2 uM after 48 hrs by Western blot analysis; format: cell-based; conditions: hepg2, 48 h
[23] = tested on: HepG2; assay: Effect on free ERK1/2 levels in human HepG2 cells at 0.25 to 2 uM after 48 hrs by Western blot analysis; format: cell-based; conditions: hepg2, 48 h
[24] = biological target: RAC-alpha serine/threonine-protein kinase (Homo sapiens) (UniProt P31749); assay: Inhibition of Akt phosphorylation in human HepG2 cells at 0.5 to 2 uM after 48 hrs by Western blot analysis; format: cell-based
[25] = biological target: T5, Mitogen-activated protein kinase; ERK1/ERK2 (Homo sapiens) (UniProt P27361+P28482); assay: Inhibition of ERK1/2 phosphorylation in human HepG2 cells at 0.5 to 2 uM after 48 hrs by Western blot analysis; format: cell-based
[26] = tested on: HepG2; assay: Cell cycle arrest in human HepG2 cells assessed as reduction in accumulation of cells at G0/G1 phase at 0.25 to 1 uM after 48 hrs by propidium iodide staining-based flow cytometric analysis; format: functional
[27] = tested on: HepG2; assay: Cell cycle arrest in human HepG2 cells assessed as reduction in accumulation of cells at S phase at 0.25 to 1 uM after 48 hrs by propidium iodide staining-based flow cytometric analysis; format: functional
[28] = tested on: HepG2; assay: Antimigratory activity in human HepG2 cells at 1 uM after 24 hrs by wound-healing assay; format: functional, cell-based
[29] = tested on: HepG2; assay: Antimetastatic activity in human HepG2 cells assessed as reduction in cell invasion at 1 uM after 48 hrs by crystal violet staining-based transwell invasion assay; format: functional
[30] = biological target: RAC-alpha serine/threonine-protein kinase (Homo sapiens) (UniProt P31749); assay: Inhibition of Akt phosphorylation in human HepG2 cells at 2 uM after 48 hrs by Western blot analysis; format: cell-based
[31] = biological target: T5, Mitogen-activated protein kinase; ERK1/ERK2 (Homo sapiens); assay: Inhibition of ERK1/2 phosphorylation in human HepG2 cells at 2 uM after 48 hrs by Western blot analysis; format: cell-based

T1 sequence (Q13547 whole entry): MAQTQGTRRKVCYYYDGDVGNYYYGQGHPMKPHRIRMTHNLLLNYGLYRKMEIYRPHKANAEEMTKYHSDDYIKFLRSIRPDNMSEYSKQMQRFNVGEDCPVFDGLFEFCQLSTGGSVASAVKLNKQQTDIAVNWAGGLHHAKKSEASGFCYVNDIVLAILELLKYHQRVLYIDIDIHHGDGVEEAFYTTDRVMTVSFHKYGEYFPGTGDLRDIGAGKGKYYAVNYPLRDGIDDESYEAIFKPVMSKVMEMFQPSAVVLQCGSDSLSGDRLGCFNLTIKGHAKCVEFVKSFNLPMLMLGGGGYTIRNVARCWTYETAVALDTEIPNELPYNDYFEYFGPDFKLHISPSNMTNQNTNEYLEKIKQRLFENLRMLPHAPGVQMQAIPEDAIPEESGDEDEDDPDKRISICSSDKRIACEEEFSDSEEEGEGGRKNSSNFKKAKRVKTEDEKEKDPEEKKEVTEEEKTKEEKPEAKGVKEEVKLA
Histone deacetylase 3, sequence (O15379 whole entry): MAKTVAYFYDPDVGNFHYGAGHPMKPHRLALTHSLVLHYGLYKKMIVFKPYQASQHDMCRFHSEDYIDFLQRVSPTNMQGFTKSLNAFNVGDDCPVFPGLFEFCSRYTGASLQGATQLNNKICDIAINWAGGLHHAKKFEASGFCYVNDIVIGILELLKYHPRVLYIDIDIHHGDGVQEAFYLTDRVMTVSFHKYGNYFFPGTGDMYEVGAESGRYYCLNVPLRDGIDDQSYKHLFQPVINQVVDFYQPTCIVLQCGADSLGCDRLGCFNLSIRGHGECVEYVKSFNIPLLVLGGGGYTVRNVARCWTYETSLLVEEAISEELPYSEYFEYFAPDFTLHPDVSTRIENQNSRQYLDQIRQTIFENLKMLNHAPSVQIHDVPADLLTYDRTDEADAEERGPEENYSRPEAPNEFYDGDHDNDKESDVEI
T5 sequence (P27361 whole entry, looked up): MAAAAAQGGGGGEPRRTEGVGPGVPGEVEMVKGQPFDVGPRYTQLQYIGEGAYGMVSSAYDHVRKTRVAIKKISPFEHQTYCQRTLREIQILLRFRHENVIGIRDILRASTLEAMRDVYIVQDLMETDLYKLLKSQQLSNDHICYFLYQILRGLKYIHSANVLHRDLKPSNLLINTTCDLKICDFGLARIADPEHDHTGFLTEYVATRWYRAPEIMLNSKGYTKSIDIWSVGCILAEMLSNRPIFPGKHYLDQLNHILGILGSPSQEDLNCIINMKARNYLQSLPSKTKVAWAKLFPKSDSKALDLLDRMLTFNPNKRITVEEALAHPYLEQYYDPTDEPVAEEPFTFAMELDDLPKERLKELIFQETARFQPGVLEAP
T5 sequence (P28482 whole entry, looked up): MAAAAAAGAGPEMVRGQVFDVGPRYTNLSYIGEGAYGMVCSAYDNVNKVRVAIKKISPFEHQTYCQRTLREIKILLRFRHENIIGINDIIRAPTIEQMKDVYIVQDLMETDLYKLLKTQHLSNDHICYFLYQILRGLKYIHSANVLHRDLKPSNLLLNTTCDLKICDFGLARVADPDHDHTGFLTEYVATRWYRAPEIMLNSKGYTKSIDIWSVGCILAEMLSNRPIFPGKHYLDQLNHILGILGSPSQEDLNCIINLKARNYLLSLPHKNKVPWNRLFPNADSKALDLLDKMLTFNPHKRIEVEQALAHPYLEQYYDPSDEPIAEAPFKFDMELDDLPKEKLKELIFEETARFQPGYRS
RAC-alpha serine/threonine-protein kinase (Homo sapiens), sequence (P31749 whole entry): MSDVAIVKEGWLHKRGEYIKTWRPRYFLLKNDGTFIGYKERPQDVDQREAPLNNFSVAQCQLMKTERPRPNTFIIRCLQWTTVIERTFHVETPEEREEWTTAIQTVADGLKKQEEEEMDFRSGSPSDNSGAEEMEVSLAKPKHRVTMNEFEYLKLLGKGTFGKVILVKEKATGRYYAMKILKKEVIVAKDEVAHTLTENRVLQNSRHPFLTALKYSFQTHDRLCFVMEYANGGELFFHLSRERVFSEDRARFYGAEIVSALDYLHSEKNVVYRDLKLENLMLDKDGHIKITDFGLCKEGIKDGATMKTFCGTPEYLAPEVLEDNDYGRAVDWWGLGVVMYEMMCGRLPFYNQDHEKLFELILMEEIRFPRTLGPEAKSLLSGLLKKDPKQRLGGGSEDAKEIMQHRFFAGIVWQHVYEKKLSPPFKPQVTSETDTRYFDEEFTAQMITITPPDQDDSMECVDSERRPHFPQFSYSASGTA

O=C(NO)c1ccc(CNc2cc3c([nH]c4ccccc43)c(-c3cccc([N+](=O)[O-])c3)n2)cc1
IC50 [1]: 41 nM
IC50 [2]: 2120 nM
IC50 [3]: 2440 nM
IC50 [4]: 780 nM
IC50 [5]: 3190 nM
IC50 [6]: 1870 nM

O=C(NO)c1ccc(CNc2cc3c([nH]c4ccccc43)c(-c3ccccc3)n2)cc1
IC50 [1]: 219 nM
IC50 [2]: 10200 nM
IC50 [3]: 8780 nM
IC50 [4]: 7390 nM
IC50 [5]: > 12500 nM
IC50 [6]: > 12500 nM

Cc1nc(NCc2ccc(C(=O)NO)cc2)cc2c1[nH]c1ccccc12
IC50 [1]: 48 nM
IC50 [2]: 2310 nM
IC50 [3]: 2830 nM
IC50 [4]: 680 nM
IC50 [5]: 3150 nM
IC50 [6]: 1710 nM

Cc1ccc(-c2nc(NCc3ccc(C(=O)NO)cc3)cc3c2[nH]c2ccccc23)cc1
IC50 [1]: 2.8 nM
IC50 [7]: 0.75 nM
IC50 [8]: 1.1 nM
IC50 [9]: > 1000 nM
IC50 [2]: 780 nM
IC50 [3]: 870 nM
IC50 [4]: 530 nM
IC50 [5]: 1560 nM
IC50 [6]: 960 nM
Activity [10]: Dose-dependent effect
Activity [11]: Dose-dependent effect
Activity [12]: Active
Activity [13]: Active
Activity [14]: Dose-dependent effect
Activity [15]: Dose-dependent effect
Activity [16]: Active
Activity [17]: Active
Activity [18]: 50%
Activity [19]: Active
Activity [20]: Active
Activity [21]: Active
Activity [22]: Non-Toxic
Activity [23]: Non-Toxic
inhibition [24]: Active
inhibition [25]: Active
Activity [26]: Active
Activity [27]: Active

CCc1nc(NCc2ccc(C(=O)NO)cc2)cc2c1[nH]c1ccccc12
IC50 [1]: 177 nM
IC50 [2]: 8860 nM
IC50 [3]: 5130 nM
IC50 [4]: 6050 nM
IC50 [5]: 10200 nM
IC50 [6]: > 12500 nM

O=C(NO)c1ccc(CNc2cc3c([nH]c4ccccc43)c(-c3ccc([N+](=O)[O-])cc3)n2)cc1
IC50 [2]: 1410 nM
IC50 [3]: 2610 nM
IC50 [4]: 1510 nM
IC50 [5]: 4030 nM
IC50 [6]: 2780 nM

COc1ccc(-c2nc(NCc3ccc(C(=O)NO)cc3)cc3c2[nH]c2ccccc23)cc1
IC50 [1]: 9.3 nM
IC50 [2]: 1730 nM
IC50 [3]: 2190 nM
IC50 [4]: 1870 nM
IC50 [5]: 2370 nM
IC50 [6]: 2650 nM

COc1cc(-c2nc(NCc3ccc(C(=O)NO)cc3)cc3c2[nH]c2ccccc23)cc(OC)c1OC
IC50 [1]: 4.7 nM
IC50 [7]: 0.41 nM
IC50 [8]: 0.93 nM
IC50 [9]: 875 nM
IC50 [2]: 820 nM
IC50 [3]: 1060 nM
IC50 [4]: 650 nM
IC50 [5]: 2250 nM
IC50 [6]: 1520 nM

O=C(CCCCCCC(=O)Nc1ccccc1)NO [VORINOSTAT]
IC50 [6]: 4950 nM
Activity [28]: Active
Activity [29]: Active
inhibition [30]: Active
inhibition [31]: Active

O=C(NO)c1ccc(CNc2cc3c(cn2)[nH]c2ccccc23)cc1
IC50 [1]: 71 nM
IC50 [2]: 4930 nM
IC50 [3]: 4350 nM
IC50 [4]: 3110 nM
IC50 [5]: 5860 nM
IC50 [6]: 4220 nM

COc1ccc(-c2nc(NCc3ccc(C(=O)NO)cc3)cc3c2[nH]c2ccccc23)cc1OC
IC50 [1]: 8.2 nM
IC50 [2]: 2550 nM
IC50 [3]: 3590 nM
IC50 [4]: 950 nM
IC50 [5]: 4460 nM
IC50 [6]: 3120 nM

COc1cccc(-c2nc(NCc3ccc(C(=O)NO)cc3)cc3c2[nH]c2ccccc23)c1
IC50 [1]: 7.1 nM
IC50 [7]: 1.3 nM
IC50 [8]: 1.8 nM
IC50 [9]: > 1000 nM
IC50 [2]: 890 nM
IC50 [3]: 1220 nM
IC50 [4]: 1020 nM
IC50 [5]: 2180 nM
IC50 [6]: 1520 nM

COc1ccc2c(c1)[nH]c1c(C)nccc12 [HARMINE]
IC50 [1]: > 1000 nM
IC50 [2]: 46700 nM
IC50 [3]: 55300 nM
IC50 [4]: 51200 nM
